Measured values taken from US20240025905A1, “SALTS OF DIHYDROPYRIMIDINE DERIVATIVES, COMPLEXES AND USES THEREOF IN MEDICINE” (SUNSHINE LAKE PHARMA CO., LTD., priority 2020, published 2024).

Legend:
[1] = Stability test (high temperature, high humidity and light tests); type: physicochemical; details: for stability (in words): high temperature, high humidity or light conditions for 10 days
Procedure: High temperature test: An appropriate amount of the test product was added into a flat weighing bottle and spread into a thin layer with thickness ≤5 mm. The bottle was placed at 60° C. or 40° C. for 10 days. Samples were taken at the 5th and 10th days to check the appearance, related substances and purity.
High humidity test: An appropriate amount of the test product was added into a flat weighing bottle and spread into a thin layer with thickness 5 mm. The bottle was placed at 25° C. and a relative humidity of 90%±5% for 10 days. Samples were taken at the 5th and 10th days to check the appearance, related substances and purity. At the same time, the weight of the test product before and after the test were accurately weighed to investigate the moisture absorption and deliquescence performance of the test product. Light test: An appropriate amount of the test product was added into a flat weighing bottle and spread into a thin layer with thickness ≤5 mm. The bottle was opened and placed in a light box (with UV) at the illuminance 4500±500 lx, UV light≥0.7 w/m^2 for 10 days. Samples were taken at the 5th and 10th days to check the appearance, related substances and purity.

[2] = Pharmacokinetic evaluation of experimental animals after oral administration; type: in vivo, Beagle dogs; details: for AUC0-t / Cmax: beagle dogs, oral via capsules, 10 mg/kg; for absorption in the body / in animals (in words): dog, in vivo; for exposure / pharmacokinetic properties (in words): experimental animals, oral
Procedure: Blood samples were taken at 0.25, 0.5, 1, 2, 4, 6, 8 and 24 hours from forelimb vein after the administration, and collected in anticoagulation tube with EDTA-K2. After liquid-liquid extraction, the blood samples were quantitatively analyzed on a triple quadrupole tandem mass spectrometer using multiple reactive ion monitoring (MRM). Pharmacokinetic parameters (AUC0-t and Cmax) were calculated using a noncompartmental method by WinNonLin 6.3 software.

[3] = Experimental research on hygroscopicity; type: physicochemical; details: 25° C.±1° C., relative humidity 90%±2%, 24 hours
Procedure: A dry stoppered glass weighing bottle (outer diameter was 50 mm, height was 15 mm) was placed in a suitable constant temperature dryer (a saturated solution of ammonium chloride or ammonium sulfate was placed at the bottom, the relative humidity was within 90%±2%) at 25° C.±1° C. the day before, and the weighing bottle was precisely weighed (m1). An appropriate amount of the test product was spread flat in the above weighing bottle. The thickness of the test product was generally about 1 mm, and the weighing bottle was precisely weighed (m2). The weighing bottle was opened and placed for 24 hours under the above constant temperature and humidity conditions with the bottle cap. The weighing bottle was closed and precisely weighed (m3), and the weight gain percentage (%) was calculated. Testing method: According to Ph.

[4] = High humidity (90% RH), 25° C., 5 days
[5] = High humidity (90% RH), 25° C., 10 days
[6] = High temperature (60° C.), 5 days
[7] = High temperature (60° C.), 10 days
[8] = Light (4500±500 lx, UV light≥0.7 w/m^2), 5 days
[9] = Light (4500±500 lx, UV light≥0.7 w/m^2), 10 days

In the case of `COC(=O)C1=C(CN2CCN3C(=O)N(c4ccc(CCC(=O)O)cc4F)C[C@@H]3C2)N=C(c2nccs2)N[C@H]1c1ccc(F)cc1Cl.CS(=O)(=O)O` [3-(4-((S)-7-(((R)-6-(2-chloro-4-fluorophenyl)-5-(methoxycarbonyl)-2-(thiazol-2-yl)-1,6-dihydropyrimidin-4-yl)methyl)-3-oxohexahydroimidazo[1,5-a]pyrazine-2(3H)-yl)-3-fluorophenyl)propionic acid methanesulfonate crystal form A], the “Purity (%)” value ([1]; 0 days) is reported as 99.40%, the “Purity (%)” value [1, 4] is reported as 99.37% and the “Purity (%)” value [1, 5] is reported as 99.36%. The “Purity (%)” value [1, 6] was 99.15%, the “Purity (%)” value [1, 7] was 98.68% and the “Purity (%)” value [1, 8] was 99.37%. For the same compound, the “Purity (%)” value [1, 9] was 99.40% and the “stability (in words)” value [1] was “very good”.
With `COC(=O)C1=C(CN2CCN3C(=O)N(c4ccc(CCC(=O)O)cc4F)C[C@@H]3C2)N=C(c2nccs2)N[C@H]1c1ccc(F)cc1Cl.O=P(O)(O)O` [Phosphate crystal form A of the compound having Formula (Ia)] [3-(4-((S)-7-(((R)-6-(2-chloro-4-fluorophenyl)-5-(methoxycarbonyl)-2-(thiazol-2-yl)-1,6-dihydropyrimidin-4-yl)methyl)-3-oxohexahydroimidazo[1,5-a]pyrazine-2(3H)-yl)-3-fluorophenyl)prop ionic acid phosphate crystal form A] the “Purity (%)” value ([1]; 0 days) was 99.13%, the “Purity (%)” value [1, 4] was 99.04% and the “Purity (%)” value [1, 5] was 99.07%. The “Purity (%)” value [1, 6] was 98.86%, the “Purity (%)” value [1, 7] was 98.39% and the “Purity (%)” value [1, 8] was 99.03%. The “Purity (%)” value [1, 9] was 99.06%, the “stability (in words)” value [1] was “very good” and the AUC0-t [2] was 4350 ng·h/mL. For the same compound, the Cmax [2] was 2690 ng/mL.
In the case of `COC(=O)C1=C(CN2CCN3C(=O)N(c4ccc(CCC(=O)O)cc4F)C[C@@H]3C2)NC(c2nccs2)=N[C@H]1c1ccc(F)cc1Cl.N=C(N)NCCC[C@H](N)C(=O)O` [3-(4-((S)-7-(((R)-6-(2-chloro-4-fluorophenyl)-5-(methoxycarbonyl)-2-(thiazol-2-yl)-3,6-dihydropyrimidin-4-yl)methyl)-3-oxohexahydroimidazo[1,5-a]pyrazine-2(3H)-yl)-3-fluorophenyl)prop ionic acid L-arginine salt crystal form A], the “Purity (%)” value ([1]; 0 days) is reported as 99.52%, the “Purity (%)” value [1, 4] is reported as 99.38% and the “Purity (%)” value [1, 5] is reported as 99.39%. The “Purity (%)” value [1, 6] was 99.46%, the “Purity (%)” value [1, 7] was 99.42% and the “Purity (%)” value [1, 8] was 99.10%. The “Purity (%)” value [1, 9] was 98.72%, the “stability (in words)” value [1] was “very good” and the AUC0-t [2] was 13100 ng·h/mL. For the same compound, the Cmax [2] was 6810 ng/mL, the “absorption in the body / in animals (in words)” value [2] was “better absorbed” and the “exposure / pharmacokinetic properties (in words)” value [2] was “higher exposure”. For the same compound, the “Weight gain of moisture absorption (%)” value [3] was 1.34% and the hygroscopicity judgment [3] was “slightly hygroscopicity”.
In the case of `COC(=O)C1=C(CN2CCN3C(=O)N(c4ccc(CCC(=O)O)cc4F)C[C@@H]3C2)N=C(c2nccs2)N[C@H]1c1ccc(F)cc1Cl.Cl` [3-(4-((S)-7-(((R)-6-(2-chloro-4-fluorophenyl)-5-(methoxycarbonyl)-2-(thiazol-2-yl)-1,6-dihydropyrimidin-4-yl)methyl)-3-oxohexahydroimidazo[1,5-a]pyrazine-2(3H)-yl)-3-fluorophenyl)prop ionic acid hydrochloride crystal form A], the “Purity (%)” value ([1]; 0 days) is reported as 99.39%, the “Purity (%)” value [1, 4] is reported as 99.37% and the “Purity (%)” value [1, 5] is reported as 99.30%. The “Purity (%)” value [1, 6] was 99.36%, the “Purity (%)” value [1, 7] was 99.22% and the “Purity (%)” value [1, 8] was 99.34%. For the same compound, the “Purity (%)” value [1, 9] was 99.26%, the “stability (in words)” value [1] was “very good” and the AUC0-t [2] was 8630 ng·h/mL. For the same compound, the Cmax [2] was 4980 ng/mL, the “absorption in the body / in animals (in words)” value [2] was “better absorbed” and the “exposure / pharmacokinetic properties (in words)” value [2] was “higher exposure”. The “Weight gain of moisture absorption (%)” value [3] was 1.32% and the hygroscopicity judgment [3] was “slightly hygroscopicity”.
With `COC(=O)C1=C(CN2CCN3C(=O)N(c4ccc(CCC(=O)O)cc4F)C[C@@H]3C2)N=C(c2nccs2)N[C@H]1c1ccc(F)cc1Cl.O=S(=O)(O)O` [Sulfate crystal form A of the compound having Formula (Ia)] [3-(4-((S)-7-(((R)-6-(2-chloro-4-fluorophenyl)-5-(methoxycarbonyl)-2-(thiazol-2-yl)-1,6-dihydropyrimidin-4-yl)methyl)-3-oxohexahydroimidazo[1,5-a]pyrazine-2(3H)-yl)-3-fluorophenyl)prop ionic acid sulfate crystal form A] the “Purity (%)” value ([1]; 0 days) was 99.14%, the “Purity (%)” value [1, 4] was 99.17% and the “Purity (%)” value [1, 5] was 99.22%. The “Purity (%)” value [1, 6] was 99.16%, the “Purity (%)” value [1, 7] was 99.12% and the “Purity (%)” value [1, 8] was 99.17%. The “Purity (%)” value [1, 9] was 99.15% and the “stability (in words)” value [1] was “very good”.
In the case of `Br.COC(=O)C1=C(CN2CCN3C(=O)N(c4ccc(CCC(=O)O)cc4F)C[C@@H]3C2)N=C(c2nccs2)N[C@H]1c1ccc(F)cc1Cl` [3-(4-((S)-7-(((R)-6-(2-chloro-4-fluorophenyl)-5-(methoxycarbonyl)-2-(thiazol-2-yl)-1,6-dihydropyrimidin-4-yl)methyl)-3-oxohexahydroimidazo[1,5-a]pyrazine-2(3H)-yl)-3-fluorophenyl)propionic acid hydrobromide crystal form A], the “Purity (%)” value ([1]; 0 days) is reported as 98.41%, the “Purity (%)” value [1, 4] is reported as 98.82% and the “Purity (%)” value [1, 5] is reported as 98.69%. The “Purity (%)” value [1, 6] was 98.43%, the “Purity (%)” value [1, 7] was 98.93% and the “Purity (%)” value [1, 8] was 98.80%. For the same compound, the “Purity (%)” value [1, 9] was 98.88%, the “stability (in words)” value [1] was “very good” and the AUC0-t [2] was 5690 ng·h/mL. It also gave a Cmax [2] of 3340 ng/mL.
With `CN(C)C=O.COC(=O)C1=C(CN2CCN3C(=O)N(c4ccc(CCC(=O)O)cc4F)C[C@@H]3C2)NC(c2nccs2)=N[C@H]1c1ccc(F)cc1Cl` [3-(4-((S)-7-(((R)-6-(2-chloro-4-fluorophenyl)-5-(methoxycarbonyl)-2-(thiazol-2-yl)-3,6-dihydropyrimidin-4-yl)methyl)-3-oxohexahydroimidazo[1,5-a]pyrazine-2(3H)-yl)-3-fluorophenyl)prop ionic acid N,N-dimethylformamide complex] the “Purity (%)” value ([1]; 0 days) was 98.63%, the “Purity (%)” value [1, 4] was 98.87% and the “Purity (%)” value [1, 5] was 98.71%. The “Purity (%)” value [1, 6] was 98.48%, the “Purity (%)” value [1, 7] was 97.76% and the “Purity (%)” value [1, 8] was 98.82%. For the same compound, the “Purity (%)” value [1, 9] was 98.48% and the “stability (in words)” value [1] was “very good”.
With `COC(=O)C1=C(CN2CCN3C(=O)N(c4ccc(CCC(=O)O)cc4F)C[C@@H]3C2)N=C(c2nccs2)N[C@H]1c1ccc(F)cc1Cl.O=P(O)(O)O` [Phosphate crystal form C of the compound having Formula (Ia)] [3-(4-((S)-7-(((R)-6-(2-chloro-4-fluorophenyl)-5-(methoxycarbonyl)-2-(thiazol-2-yl)-1,6-dihydropyrimidin-4-yl)methyl)-3-oxohexahydroimidazo[1,5-a]pyrazine-2(3H)-yl)-3-fluorophenyl)prop ionic acid phosphate crystal form C] the “Purity (%)” value ([1]; 0 days) was 99.34%, the “Purity (%)” value [1, 4] was 99.29% and the “Purity (%)” value [1, 5] was 99.36%. For the same compound, the “Purity (%)” value [1, 6] was 87.42%, the “Purity (%)” value [1, 7] was 60.31% and the “Purity (%)” value [1, 8] was 99.30%. The “Purity (%)” value [1, 9] was 99.30%, the “stability under high temperature (in words)” value ([1]; high temperature (such as 60° C.)) was “unstable” and the AUC0-t [2] was 1900 ng·h/mL. The Cmax [2] was 907 ng/mL.
With `COC(=O)C1=C(CN2CCN3C(=O)N(c4ccc(CCC(=O)O)cc4F)C[C@@H]3C2)N=C(c2nccs2)N[C@H]1c1ccc(F)cc1Cl.O=S(=O)(O)O` [Sulfate crystal form B of the compound having Formula (Ia)] [3-(4-((S)-7-(((R)-6-(2-chloro-4-fluorophenyl)-5-(methoxycarbonyl)-2-(thiazol-2-yl)-1,6-dihydropyrimidin-4-yl)methyl)-3-oxohexahydroimidazo[1,5-a]pyrazine-2(3H)-yl)-3-fluorophenyl)prop ionic acid sulfate crystal form B] the “Purity (%)” value ([1]; 0 days) was 98.98%, the “Purity (%)” value [1, 4] was 98.90% and the “Purity (%)” value [1, 5] was 98.94%. For the same compound, the “Purity (%)” value [1, 6] was 98.94%, the “Purity (%)” value [1, 7] was 98.68% and the “Purity (%)” value [1, 8] was 99.01%. For the same compound, the “Purity (%)” value [1, 9] was 98.91%, the “stability (in words)” value [1] was “very good” and the AUC0-t [2] was 10840 ng·h/mL. The Cmax [2] was 6620 ng/mL, the “absorption in the body / in animals (in words)” value [2] was “better absorbed” and the “exposure / pharmacokinetic properties (in words)” value [2] was “higher exposure”. The “Weight gain of moisture absorption (%)” value [3] was 0.97% and the hygroscopicity judgment [3] was “slightly hygroscopicity”.
